The results in this text go back to patent publication US12396996B2, “Compounds, pharmaceutical compositions, and methods of their use in reversing cancer chemoresistance” (priority 2019, dated 2025).

The subject of test [1] is TICs (cancer stem/progenitor cells). Put plainly: Tumorsphere assay. In kind it is cell-based. Conditions: 0, 30, 80 nM; 14 days of culture. The source says: FIGS. 1F-1I show the results of a 3-D tumor spheroid assay formed by the chemotherapy-resistant breast cancer cell line, HMLE-SNAIL. […] Tumor spheroids are a model of real in vivo tumors, as they form a 3-D cell mass in which the hypoxic and often nutrient depleted microenvironment at the center of the tumor is enriched with mesenchymal, chemotherapy-resistant TIC cells. […] By staining spheroids with Sytox, which stains dead cells green, and DAPI, which stains the nuclei of all cells (living or dead), total fraction of dead cells is calculated. Also, the location of dead cells within the sphere is visualized with Sytox (green) staining. The results of FIGS. 1F-1I indicate that chaetocin a selective and potent killer of inner cells of the spheroids, enriched with mesenchymal, chemotherapy-resistant TIC cells, compared to other compounds tested. FIGS. 1J-1K show the results of a tumorsphere assay performed with TICs grown on serum-free, non-adherent culture conditions. […] The results of FIGS. 1J-1K indicate that chaetocin is effective in eliminating TICs in a dose dependent-manner.
To further determine the effect of chaetocin on eliminating TICs, a tumorsphere assay was performed on cancer cells under increasing concentrations of chaetocin. A tumorsphere is a solid spherical formation developed from the proliferation of one cancer stem/progenitor cell. […]

Test [2] concerns 786-0, A549 and HMLE-TWIST cells. Put plainly: Order of chaetocin and chemotherapy, caspase-3 cleavage. In kind it is cell-based, human. The procedure: FIGS. 4D-4E show a set of bar plots and schematics of experiments in which chaetocin (80 nM) was administered for 15 hours either alone, two days before (FIG. 4E) or after a 2 day treatment with a chemotherapeutic drug (FIG. 4D; 300 nM cisplatin or 10 nM Doxorubicin) to 786-0 clear cell renal carcinoma cells, A549 lung cancer cells, and HMLE-TWIST (E-Twist) breast cancer cells. Cell death was assayed with cleaved caspase 3 fluorescent intensity. These experiments were designed to test the prediction of an epigenetic model for chaetocin-mediated reversal of chemotherapy resistance, namely that chaetocin must be added transiently for a short duration (15 hours) 2 days prior to chemotherapy to sensitize the cells to treatment. If the order was reversed (FIG. 4D), there should be no effect. The results of FIGS. 4A-4E indicate that chaetocin primes cancer cells for apoptotic death by chemotherapy through epigenetic reversal of chemotherapy resistance.
In a separate set of experiments, to test the generality of chaetocin in reversing the chemotherapy resistance of mesenchymal, TIC-rich cancers, well-characterized mesenchymal TIC-rich cell lines from ccRCC 786-0 and lung cancer cells (A549) were used along with HMLE-TWIST cells described above. […]

Test [3] relates to 786-0 and HMLE-Snail (E-Snail) cells versus WT7, HMLE, HK-2, NP-1 and BEAS-2B cells. Put plainly: Proliferation assay on normal and cancer cell lines. In kind it is cell-based, human. Conditions: 100 nM chaetocin for 1 day. The text has this:
Mesenchymal, TIC-rich, chemotherapy-resistant cell lines used in this experiment are the clear cell renal carcinoma cell line 786-0 and the human mammary epithelial (HMLE) cell line in which the zinc finger protein SNAI1 (SNAIL) is overexpressed, E-SNAIL. The isogenic epithelial, TIC-depleted, chemotherapy sensitive cell lines used as controls are the clear cell renal carcinoma cell line WT7 (modified 786-0 cells) and the human mammary epithelial (HMLE) cell with […].
To test if other mesenchymal, TIC-rich, chemotherapy resistant cell lines of different tissue origin (e.g. kidney) are also sensitive to chaetocin treatment, normal and cancerous breast (control) and renal cells were treated in culture with 100 nM chaetocin for 1 day, after which cell growth was assayed using a proliferation assay (FIG. 1C). The tested cells included a 786-0 clear cell renal cell carcinoma (ccRCC) cell line, which is defective in the Von Hippel-Lindau tumor suppressor (VHL), enriched in TIC, and difficult to eliminate by conventional chemotherapy in patients carrying this mutation. WT7 cell line is a modified 786-0 cell line in which VHL is re-introduced artificially, rendering them epithelial, TIC-depleted and susceptible to chemotherapy. […]

Consider `CN1C(=O)[C@@]23C[C@]4([C@]56C[C@@]78SS[C@](CO)(C(=O)N7[C@H]5Nc5ccccc56)N(C)C8=O)c5ccccc5N[C@@H]4N2C(=O)[C@@]1(CO)SS3` [chaetocin], for which, in test [1], the “number of tumorspheres per well” value is given as “can eliminate TICs at low doses”. Further, the “sensitization to chemotherapy (caspase-3 cleavage)” value was “sensitizes them to chemotherapeutic killing” in test [2] (80 nM for 15 hours, 2 days before cisplatin or doxorubicin) and “did not produce similar chemotherapeutic killing of cells” in test [2] (order reversed: chaetocin after chemotherapy). In addition, the inhibition of proliferation entry in test [3] was “selectively inhibits the growth of mesenchymal, TIC-rich, chemotherapy resistant breast and kidney cancer cell lines”.
